Test results as given in ChEMBL document CHEMBL4725382, “Uridine natural products: Challenging targets and inspiration for novel small molecule inhibitors” (Bioorg Med Chem, 2020).
Converted amounts (≈) assume the structure as drawn.

system: Mycobacterium tuberculosis; assay: Antimycobacterial activity against Mycobacterium tuberculosis H37Rv ATCC 27294 after 14 days by resazurin reduction microplate assay; format: functional; conditions: H37Rv ATCC 27294, 336 h

| SMILES | MIC50 [µM] |
| --- | --- |
| CC(C)C[C@H](NC(=O)N[C@@H](Cc1c[nH]c2ccccc12)C(=O)O)C(=O)N[C@H](C(=O)NC[C@H]1C[C@@H](O)[C@H](n2ccc(=O)[nH]c2=O)O1)[C@H](C)N(C)C(=O)[C@H](C)N | 0.6 (≈ 0.453 µg/mL) |
| CC(C)C[C@H](NC(=O)N[C@@H](Cc1c[nH]c2ccccc12)C(=O)O)C(=O)N[C@H](C(=O)NC[C@H]1C[C@@H](O)[C@H](n2ccc(=O)[nH]c2=O)O1)[C@H](C)N(C)C(=O)[C@@H](N)Cc1cccnc1 | 5.85 (≈ 4.87 µg/mL) |
| C[C@@H]([C@H](NC(=O)[C@H](Cc1cccnc1)NC(=O)N[C@@H](Cc1c[nH]c2ccccc12)C(=O)O)C(=O)NC[C@H]1C[C@@H](O)[C@H](n2ccc(=O)[nH]c2=O)O1)N(C)C(=O)CN | 0.98 (≈ 0.761 µg/mL) |
| CC(C)C[C@H](NC(=O)N[C@@H](Cc1c[nH]c2ccccc12)C(=O)O)C(=O)N[C@H](C(=O)NC[C@H]1C[C@@H](O)[C@H](n2ccc(=O)[nH]c2=O)O1)[C@H](C)N(C)C(=O)[C@@H](N)CC(=O)O | 9.8 (≈ 7.84 µg/mL) |
| CC(C)[C@H](NC(=O)N[C@@H](Cc1c[nH]c2ccccc12)C(=O)O)C(=O)N[C@H](C(=O)NC[C@H]1C[C@@H](O)[C@H](n2ccc(=O)[nH]c2=O)O1)[C@H](C)N(C)C(=O)CN | 0.88 (≈ 0.64 µg/mL) |

system: Mycobacterium tuberculosis; assay: Antimycobacterial activity against Mycobacterium tuberculosis H37Rv; format: functional; conditions: not given

| SMILES | MIC [µM] |
| --- | --- |
| CCCCCCCCCCCCCCCCCCNC(=O)C1=CCN(C)[C@@H]([C@H](O[C@@H]2O[C@H](CN)[C@@H](O)[C@H]2O)[C@H]2O[C@@H](n3ccc(=O)[nH]c3=O)[C@H](O)[C@@H]2O)C(=O)N1C | 0.98 (≈ 0.793 µg/mL) |
| CCCCCCCCCCCCCCCCCCCCNC(=O)C1=CCN(C)[C@@H]([C@H](O[C@@H]2O[C@H](CN)[C@@H](O)[C@H]2O)[C@H]2O[C@@H](n3ccc(=O)[nH]c3=O)[C@H](O)[C@@H]2O)C(=O)N1C | 0.98 (≈ 0.82 µg/mL) |
| CN1C(=O)[C@H]([C@H](O[C@@H]2O[C@H](CN)[C@@H](O)[C@H]2O)[C@H]2O[C@@H](n3ccc(=O)[nH]c3=O)[C@H](O)[C@@H]2O)N(C)CC=C1C(=O)Nc1ccc(C2CCCCC2)cc1 | 2.18 (≈ 1.56 µg/mL) |
| CCCCCCCCCNC(=O)C1=CCN(C)[C@@H]([C@H](O[C@@H]2O[C@H](CN)[C@@H](O)[C@H]2O)[C@H]2O[C@@H](n3ccc(=O)[nH]c3=O)[C@H](O)[C@@H]2O)C(=O)N1C | 0.98 (≈ 0.669 µg/mL) |
| CCCCCCCCCCOC(=O)C1=CCN(C)[C@@H]([C@H](O[C@@H]2O[C@H](CN)[C@@H](O)[C@H]2O)[C@H]2O[C@@H](n3ccc(=O)[nH]c3=O)[C@H](O)[C@@H]2O)C(=O)N1C | 8.45 (≈ 5.9 µg/mL) |
| CCc1ccc(NC(=O)C2=CCN(C)[C@@H]([C@H](O[C@@H]3O[C@H](CN)[C@@H](O)[C@H]3O)[C@H]3O[C@@H](n4ccc(=O)[nH]c4=O)[C@H](O)[C@@H]3O)C(=O)N2C)cc1 | 1.09 (≈ 0.72 µg/mL) |
| CCCCCNC(=O)C1=CCN(C)[C@@H]([C@H](O[C@@H]2O[C@H](CN)[C@@H](O)[C@H]2O)[C@H]2O[C@@H](n3ccc(=O)[nH]c3=O)[C@H](O)[C@@H]2O)C(=O)N1C | 0.98 (≈ 0.614 µg/mL) |
| CCCCCCCOc1ccc(NC(=O)C2=CCN(C)[C@@H]([C@H](O[C@@H]3O[C@H](CN)[C@@H](O)[C@H]3O)[C@H]3O[C@@H](n4ccc(=O)[nH]c4=O)[C@H](O)[C@@H]3O)C(=O)N2C)cc1 | 0.98 (≈ 0.732 µg/mL) |
| CCCCCCCCCCCCCOC(=O)C1=CCN(C)[C@@H]([C@H](O[C@@H]2O[C@H](CN)[C@@H](O)[C@H]2O)[C@H]2O[C@@H](n3ccc(=O)[nH]c3=O)[C@H](O)[C@@H]2O)C(=O)N1C | 8.45 (≈ 6.25 µg/mL) |
| CCCCCCCCCCNC(=O)C1=CCN(C)[C@@H]([C@H](O[C@@H]2O[C@H](CN)[C@@H](O)[C@H]2O)[C@H]2O[C@@H](n3ccc(=O)[nH]c3=O)[C@H](O)[C@@H]2O)C(=O)N1C | 0.98 (≈ 0.683 µg/mL) |
| CCCCCCCCCCCCCCCCCCCNC(=O)C1=CCN(C)[C@@H]([C@H](O[C@@H]2O[C@H](CN)[C@@H](O)[C@H]2O)[C@H]2O[C@@H](n3ccc(=O)[nH]c3=O)[C@H](O)[C@@H]2O)C(=O)N1C | 0.98 (≈ 0.807 µg/mL) |
| CCCCCCCC/C=C\CCCCCCCCNC(=O)C1=CCN(C)[C@@H]([C@H](O[C@@H]2O[C@H](CN)[C@@H](O)[C@H]2O)[C@H]2O[C@@H](n3ccc(=O)[nH]c3=O)[C@H](O)[C@@H]2O)C(=O)N1C | 3.88 (≈ 3.13 µg/mL) |
| CCCCCCCCCCCCCNC(=O)C1=CCN(C)[C@@H]([C@H](O[C@@H]2O[C@H](CN)[C@@H](O)[C@H]2O)[C@H]2O[C@@H](n3ccc(=O)[nH]c3=O)[C@H](O)[C@@H]2O)C(=O)N1C | 0.98 (≈ 0.724 µg/mL) |
| CCCCCCNC(=O)C1=CCN(C)[C@@H]([C@H](O[C@@H]2O[C@H](CN)[C@@H](O)[C@H]2O)[C@H]2O[C@@H](n3ccc(=O)[nH]c3=O)[C@H](O)[C@@H]2O)C(=O)N1C | 0.98 (≈ 0.628 µg/mL) |
| CCCCCCCCCCCCCCCCCCCCCNC(=O)C1=CCN(C)[C@@H]([C@H](O[C@@H]2O[C@H](CN)[C@@H](O)[C@H]2O)[C@H]2O[C@@H](n3ccc(=O)[nH]c3=O)[C@H](O)[C@@H]2O)C(=O)N1C | 0.98 (≈ 0.834 µg/mL) |
| CCCCc1ccc(NC(=O)C2=CCN(C)[C@@H]([C@H](O[C@@H]3O[C@H](CN)[C@@H](O)[C@H]3O)[C@H]3O[C@@H](n4ccc(=O)[nH]c4=O)[C@H](O)[C@@H]3O)C(=O)N2C)cc1 | 1.09 (≈ 0.751 µg/mL) |
| CCCCCCCCCCCCNC(=O)C1=CCN(C)[C@@H]([C@H](O[C@@H]2O[C@H](CN)[C@@H](O)[C@H]2O)[C@H]2O[C@@H](n3ccc(=O)[nH]c3=O)[C@H](O)[C@@H]2O)C(=O)N1C | 0.98 (≈ 0.71 µg/mL) |
| CCCCCCCCCCCCCCCCCNC(=O)C1=CCN(C)[C@@H]([C@H](O[C@@H]2O[C@H](CN)[C@@H](O)[C@H]2O)[C@H]2O[C@@H](n3ccc(=O)[nH]c3=O)[C@H](O)[C@@H]2O)C(=O)N1C | 0.98 (≈ 0.779 µg/mL) |

| SMILES | MIC [µM] |
| --- | --- |
| CO[C@@H]1[C@@H](OC)[C@H](C)O[C@@H](OC(=O)C[C@@H](C)CC(=O)O[C@@H](CCCCCCCCCCC(C)C)CC(=O)O[C@H]2CN(C)[C@@H]([C@H](O[C@@H]3O[C@H](CN)[C@@H](O)[C@H]3O)[C@H]3O[C@@H](n4ccc(=O)[nH]c4=O)[C@H](O)[C@@H]3O)C(=O)N(C)[C@@H]2C(=O)O)[C@@H]1OC | 2.73 (≈ 3.13 µg/mL) |
| CCCCCCCc1ccc(NC(=O)C2=CCN(C)[C@@H]([C@H](O[C@@H]3O[C@H](CN)[C@@H](O)[C@H]3O)[C@H]3O[C@@H](n4ccc(=O)[nH]c4=O)[C@H](O)[C@@H]3O)C(=O)N2C)cc1 | 1.09 (≈ 0.797 µg/mL) |
| CCCCOc1ccc(NC(=O)C2=CCN(C)[C@@H]([C@H](O[C@@H]3O[C@H](CN)[C@@H](O)[C@H]3O)[C@H]3O[C@@H](n4ccc(=O)[nH]c4=O)[C@H](O)[C@@H]3O)C(=O)N2C)cc1 | 1.04 (≈ 0.733 µg/mL) |
| CC/C=C\CCCCCCCCCCOC(=O)C1=CCN(C)[C@@H]([C@H](O[C@@H]2O[C@H](CN)[C@@H](O)[C@H]2O)[C@H]2O[C@@H](n3ccc(=O)[nH]c3=O)[C@H](O)[C@@H]2O)C(=O)N1C | 16.6 (≈ 12.5 µg/mL) |
| CN1C(=O)[C@H]([C@H](O[C@@H]2O[C@H](CN)[C@@H](O)[C@H]2O)[C@H]2O[C@@H](n3ccc(=O)[nH]c3=O)[C@H](O)[C@@H]2O)N(C)CC=C1C(=O)NC1CCCCCCCCCCC1 | 2.16 (≈ 1.56 µg/mL) |
| CCCCCCCCCCCCCCNC(=O)C1=CCN(C)[C@@H]([C@H](O[C@@H]2O[C@H](CN)[C@@H](O)[C@H]2O)[C@H]2O[C@@H](n3ccc(=O)[nH]c3=O)[C@H](O)[C@@H]2O)C(=O)N1C | 0.98 (≈ 0.738 µg/mL) |
| CCCCCCCCCCCCCCCCNC(=O)C1=CCN(C)[C@@H]([C@H](O[C@@H]2O[C@H](CN)[C@@H](O)[C@H]2O)[C@H]2O[C@@H](n3ccc(=O)[nH]c3=O)[C@H](O)[C@@H]2O)C(=O)N1C | 0.98 (≈ 0.765 µg/mL) |
| CCCCCCc1ccc(NC(=O)C2=CCN(C)[C@@H]([C@H](O[C@@H]3O[C@H](CN)[C@@H](O)[C@H]3O)[C@H]3O[C@@H](n4ccc(=O)[nH]c4=O)[C@H](O)[C@@H]3O)C(=O)N2C)cc1 | 1.09 (≈ 0.781 µg/mL) |
| CCCCCCCCCCCCc1ccc(NC(=O)C2=CCN(C)[C@@H]([C@H](O[C@@H]3O[C@H](CN)[C@@H](O)[C@H]3O)[C@H]3O[C@@H](n4ccc(=O)[nH]c4=O)[C@H](O)[C@@H]3O)C(=O)N2C)cc1 | 1.09 (≈ 0.873 µg/mL) |
| CCCCCCCCCCCCCCCNC(=O)C1=CCN(C)[C@@H]([C@H](O[C@@H]2O[C@H](CN)[C@@H](O)[C@H]2O)[C@H]2O[C@@H](n3ccc(=O)[nH]c3=O)[C@H](O)[C@@H]2O)C(=O)N1C | 0.98 (≈ 0.752 µg/mL) |
| CCCCc1ccc(N)cc1 | 2.27 (≈ 0.339 µg/mL) |
| CCCCCCCCCCCNC(=O)C1=CCN(C)[C@@H]([C@H](O[C@@H]2O[C@H](CN)[C@@H](O)[C@H]2O)[C@H]2O[C@@H](n3ccc(=O)[nH]c3=O)[C@H](O)[C@@H]2O)C(=O)N1C | 0.98 (≈ 0.697 µg/mL) |
| Nc1ccc(C2CCCCC2)cc1 | 2.27 (≈ 0.398 µg/mL) |
| CCCCOc1ccc(N)cc1 | 2.27 (≈ 0.375 µg/mL) |
| C=CCCCCCCCCCOC(=O)C1=CCN(C)[C@@H]([C@H](O[C@@H]2O[C@H](CN)[C@@H](O)[C@H]2O)[C@H]2O[C@@H](n3ccc(=O)[nH]c3=O)[C@H](O)[C@@H]2O)C(=O)N1C | 17.6 (≈ 12.5 µg/mL) |
| CCCCCCCCNC(=O)C1=CCN(C)[C@@H]([C@H](O[C@@H]2O[C@H](CN)[C@@H](O)[C@H]2O)[C@H]2O[C@@H](n3ccc(=O)[nH]c3=O)[C@H](O)[C@@H]2O)C(=O)N1C | 0.98 (≈ 0.655 µg/mL) |
| CCCCCCCNC(=O)C1=CCN(C)[C@@H]([C@H](O[C@@H]2O[C@H](CN)[C@@H](O)[C@H]2O)[C@H]2O[C@@H](n3ccc(=O)[nH]c3=O)[C@H](O)[C@@H]2O)C(=O)N1C | 0.98 (≈ 0.642 µg/mL) |
| CCCCCCCCCCCCCCCCCCOC(=O)C1=CCN(C)[C@@H]([C@H](O[C@@H]2O[C@H](CN)[C@@H](O)[C@H]2O)[C@H]2O[C@@H](n3ccc(=O)[nH]c3=O)[C@H](O)[C@@H]2O)C(=O)N1C | 8.45 (≈ 6.84 µg/mL) |
